From PubChem BioAssay (NCI) come the findings set out here.

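The compound was tested at five concentrations on cells cultured in 96-well plates, with a 48-hour exposure period. GI50 = concentration required for 50% inhibition of growth. The concentration for full growth arrest is given as TGI.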

The first assay deals with UO-31 renal. The assay can be described thus: NCI-60 cell line screen, 48 h.
With `CN(C)c1ccc(/C=C(\NC(=O)c2ccccc2)c2nc3ncncc3[nH]2)cc1`, the TGI is above 100 µM.
On the same count and under the same terms, under `CC1=CC(O)(c2ccc(-c3ccccc3Cl)cc2)OC1=O` (centres undefined) stands above 100 µM.
On to `O=C(/C=C/c1ccncc1)c1cc(Cl)ccc1O`, for which the GI50 is 11 µM and the TGI was found to be 26.7 µM.
The like results for `COc1cc2c3c(n(C)c(=O)c2cc1OC)-c1cc2c(cc1/C3=C\CCCN)OCO2` were, in that order, 3.18 µM and 20.3 µM.
`CCOC(=O)CC(=O)ON(C)C(C)=O` displayed a TGI above 100 µM.
Still for that read-out and setting: to `Cc1ccc(S(=O)(=O)Nc2ccccc2C(=O)c2ccc(C)c(C)c2)cc1` belongs above 100 µM.
The same measure, in the same setting: under `COC(OC)C(C)CC(=O)N(C)C` (centres undefined) stands above 100 µM; under `O=S1(=O)OCCOS(=O)(=O)C1Br`, above 100 µM; under `CC(C)=Cc1cc(C(=O)Nc2ccc(Cl)c(Cl)c2)nc(N)n1`, above 100 µM.
On the same count and under the same terms, under `CCOC(=O)c1cc2nc3ccccc3c(=O)n2c2ccccc12` stands above 10 µM; under `CC(=O)/C(=C\c1cccc([N+](=O)[O-])c1)C(=O)Nc1ccccc1C`, above 100 µM.
In the case of `C[Si](C)(C)C1(Sc2ccccc2)SCCCS1`, the TGI amounted to 39.8 µM.
Turning to `O=C(CSc1ccc(Cl)cc1)Nc1ccc(-c2nc3ccccc3s2)c(Cl)c1`, the GI50 is 2.29 µM and the TGI is 22.9 µM.
The matching figures for `COc1cc2c3c(n(C)c(=O)c2cc1OC)-c1cc2c(cc1/C3=C\CCN)OCO2`: 0.337 µM and 8.9 µM.

A further assay deals with A549 NSCLC. The assay can be described thus: NCI-60 cell line screen, 48 h.
As to `CCOC(=O)NC(=O)c1cn(CCCO)c(=O)[nH]c1=O`, the TGI is above 100 µM.
Same read-out and setting: to `CCN1c2ccccc2C(C(SC)S(=O)(=O)c2ccc(C)cc2)c2c1[nH]c(=O)n(C)c2=O` (centres undefined) belongs above 100 µM; to `COc1ccc(S(=O)(=O)NNS(C)(=O)=O)cc1`, above 100 µM.
As to `C[C@@H]1CCC2[C@@H](C)[C@@H](OCC(CO[C@H]3OC4O[C@@]5(C)CC[C@H]6[C@H](C)CCC([C@H]3C)[C@@]46OO5)OC(=O)CCC(=O)O)OC3O[C@@]4(C)CC[C@@H]1[C@]32OO4` (some centres undefined), the GI50 was 0.971 µM and the TGI is 32.6 µM.
The like results for `O=C1c2cc3c(cc2-c2c1c1ccc(F)cc1c(=O)n2CCCNCCO)OCO3` were, in that order, 0.0339 µM and 0.188 µM.
In turn, `CC1(C)C2CCC(=O)C1CC2` (centres undefined) came in with a TGI above 100 µM.
The same measure, in the same setting: under `O=C(/C=C\c1ccc(Cl)c(Cl)c1)c1ccc(Cl)cc1Cl` stands 60.7 µM.
As to `ClCc1cccc(Cn2cnc3ncnc(Cl)c32)c1`, the GI50 is 17.2 µM and the TGI came out at 39.6 µM.
Regarding `CCOC(=O)C(=C=C=C(c1ccccc1)c1ccccc1)C(=O)OCC`, the TGI was found to be 74.5 µM.
In the case of `OCC#Cc1ccccc1C#Cc1ccccc1`, the GI50 is 16.5 µM and the TGI was found to be 45 µM.
The molecule `Cn1c2ccccc2c2cc(-c3ccccc3)c3c(c21)C(=O)c1ccccc1C3=O` yielded a TGI of 79.1 µM.
Same read-out and setting: to `c1ccc(COc2cccc3ccc[n+](Cc4ccccc4)c23)cc1` belongs above 100 µM; to `CN(C)c1ccc(/C=C(\NC(=O)c2ccccc2)c2nc3ncncc3[nH]2)cc1`, above 100 µM; to `CC1=CC(O)(c2ccc(-c3ccccc3Cl)cc2)OC1=O` (centres undefined), above 100 µM.
With `O=C(/C=C/c1ccncc1)c1cc(Cl)ccc1O`, the GI50 was 23 µM and the TGI amounted to 53.2 µM.
As to `COc1cc2c3c(n(C)c(=O)c2cc1OC)-c1cc2c(cc1/C3=C\CCCN)OCO2`, the GI50 is 4.3 µM and the TGI was above 100 µM.
As for `CCOC(=O)CC(=O)ON(C)C(C)=O`, the TGI was above 100 µM.
On the same count and under the same terms, under `Cc1ccc(S(=O)(=O)Nc2ccccc2C(=O)c2ccc(C)c(C)c2)cc1` stands above 100 µM; under `COC(OC)C(C)CC(=O)N(C)C` (centres undefined), above 100 µM.
Molecule `O=S1(=O)OCCOS(=O)(=O)C1Br` showed a TGI above 100 µM.
The same measure, in the same setting: under `CC(C)=Cc1cc(C(=O)Nc2ccc(Cl)c(Cl)c2)nc(N)n1` stands above 100 µM.
Molecule `CCOC(=O)c1cc2nc3ccccc3c(=O)n2c2ccccc12` yielded a TGI above 10 µM.
On the same count and under the same terms, to `CC(=O)/C(=C\c1cccc([N+](=O)[O-])c1)C(=O)Nc1ccccc1C` belongs above 100 µM; to `C[Si](C)(C)C1(Sc2ccccc2)SCCCS1`, above 100 µM.
With `O=C(CSc1ccc(Cl)cc1)Nc1ccc(-c2nc3ccccc3s2)c(Cl)c1`, the GI50 was 5.84 µM and the TGI was above 100 µM.
Take `COc1cc2c3c(n(C)c(=O)c2cc1OC)-c1cc2c(cc1/C3=C\CCN)OCO2`: the GI50 is 0.165 µM and the TGI was determined as 4.44 µM.

In the next assay the test system is NCI/ADR-RES ovarian. The assay can be described thus: NCI-60 cell line screen, 48 h.
Take `C[C@@H]1CCC2[C@@H](C)[C@@H](OCC(CO[C@H]3OC4O[C@@]5(C)CC[C@H]6[C@H](C)CCC([C@H]3C)[C@@]46OO5)OC(=O)CCC(=O)O)OC3O[C@@]4(C)CC[C@@H]1[C@]32OO4` (some centres undefined): the GI50 was 0.245 µM and the TGI is 6.23 µM.
`O=C1c2cc3c(cc2-c2c1c1ccc(F)cc1c(=O)n2CCCNCCO)OCO3`: the GI50 is 0.0374 µM and the TGI turned out to be 1.08 µM.
In turn, `CC1(C)C2CCC(=O)C1CC2` (centres undefined) gave a TGI above 100 µM.
For the molecule `ClCc1cccc(Cn2cnc3ncnc(Cl)c32)c1`, the GI50 is 2.78 µM and the TGI was 9.75 µM.
With `OCC#Cc1ccccc1C#Cc1ccccc1`, the GI50 is 14.8 µM and the TGI was found to be 30.8 µM.
The matching figures for `O=C(/C=C/c1ccncc1)c1cc(Cl)ccc1O`: 22.7 µM and 66.4 µM.
The matching figures for `COc1cc2c3c(n(C)c(=O)c2cc1OC)-c1cc2c(cc1/C3=C\CCCN)OCO2`: 14.5 µM and 74.4 µM.
The molecule `Cc1ccc(S(=O)(=O)Nc2ccccc2C(=O)c2ccc(C)c(C)c2)cc1` had a TGI above 100 µM.
Consider `CCOC(=O)c1cc2nc3ccccc3c(=O)n2c2ccccc12`, for which the TGI is above 10 µM.
`O=C(CSc1ccc(Cl)cc1)Nc1ccc(-c2nc3ccccc3s2)c(Cl)c1`: the GI50 was 4.39 µM and the TGI is 32.6 µM.
